Source: patent US11779014B2, “Adjuvants” (SYNGENTA PARTICIPATIONS AG, priority 2017, dated 2023)

Columns and labels:
Format in all cases: in vivo
Details in all cases: total surfactant 0.2% w/v, 21 days
Avena fatua (AVEFA) = test: Glasshouse adjuvancy test for pinoxaden on AVEFA
Procedure: The efficacy of 1:1 blends of oleyl 20EO with oleyl 20EO with either n-hexanoyl, n-octanoyl or 2-ethyl hexanoyl ester caps as adjuvants for the herbicide pinoxaden was tested in a glasshouse against two weed species, sown into standard soil in pots and cultivated under controlled conditions in a glasshouse (20/16° C. day/night; 16 hours light; 65% humidity). Pinoxaden was added to the spray tank as a standard EC (emulsifiable concentrate) formulation. The plants were sprayed with pinoxaden at rates of 7.5 or 15 grams of pesticide per hectare using a laboratory track sprayer which delivered the aqueous spray composition at a rate of 200 litres per hectare, using a flat fan nozzle (Teejet 11002VS) at 2 bar. The spray solutions also contained the oleyl 20EO alone or in the 1:1 blends with the capped surfactants. The adjuvants were added to the spray solution at a total surfactant rate of 0.2% w/v. All spray solutions also contained 10% w/w of iso-propanol. The weed species and their BBCH growth stage at spraying were Avena fatua (AVEFA; growth stage 13) and Setaria viridis (SETVI; growth stage 13). Each spray test was replicated three times. The test plants were then grown in a glasshouse under controlled conditions (20/16° C. day/night; 16 hours light; 65% humidity) and watered twice a day. The efficacy of the herbicide was assessed visually and expressed as a percentage of the leaf area killed. Samples were assessed at a time period of 21 days following application.
Dodecyl 23EO and hexadecyl 20EO were capped with an n-hexyl ether cap. The efficacy of 1:1 blends of these with their uncapped counterparts were tested as adjuvants for the herbicide pinoxaden was tested in a glasshouse against two weed species, sown into standard soil in pots and cultivated under controlled conditions in a glasshouse (20/16° C. day/night; 16 hours light; 65% humidity). Pinoxaden was added to the spray tank as a standard EC (emulsifiable concentrate) formulation. The plants were sprayed with pinoxaden at a.i. rates of 7.5 or 15 grams per hectare using a laboratory track sprayer which delivered the aqueous spray composition at a rate of 200 litres per hectare, using a flat fan nozzle (Teejet 11002VS) at 2 bar. The spray solutions tested included the capped and uncapped alone or in the 1:1 blends with the capped surfactants. The adjuvants were added to the spray solution at a total surfactant rate of 0.2% w/v. All spray solutions also contained 10% w/w of iso-propanol. The weed species and their BBCH growth stage at spraying was Avena fatua (AVEFA; growth stage 12). Each spray test was replicated three times. The test plants were then grown in a glasshouse under controlled conditions (20/16° C. day/night; 16 hours light; 65% humidity) and watered twice a day. The efficacy of the herbicide was assessed visually and expressed as a percentage of the leaf area killed. Samples were assessed at a time period of 21 days following application.
Oleyl 20EO was capped with -butyl, n-pentyl and n-benzyl caps. The efficacy of 1:1 blends of these with their uncapped counterparts were tested as adjuvants for the herbicide pinoxaden was tested in a glasshouse against two weed species, sown into standard soil in pots and cultivated under controlled conditions in a glasshouse (20/16° C. day/night; 16 hours light; 65% humidity). Pinoxaden was added to the spray tank as a standard EC (emulsifiable concentrate) formulation. The plants were sprayed with pinoxaden at a.i. rates of 7.5 or 15 grams per hectare using a laboratory track sprayer which delivered the aqueous spray composition at a rate of 200 litres per hectare, using a flat fan nozzle (Teejet 11002VS) at 2 bar. The spray solutions tested included the capped and uncapped alone or in the 1:1 blends with the capped surfactants. The adjuvants were added to the spray solution at a total surfactant rate of 0.2% w/v. All spray solutions also contained 10% w/w of iso-propanol.

[1] = system: Chenopodium album (CHEAL); test: Glasshouse adjuvancy test for fomesafen (sodium salt) on CHEAL
Procedure: Fomesafen sodium salt was added to the spray tank as a standard SL (soluble concentrate) formulation. The plants were sprayed with fomesafen (sodium salt) at rates of 100 or 200 grams of sodium fomesafen per hectare using a laboratory track sprayer which delivered the aqueous spray composition at a rate of 200 litres per hectare, using a flat fan nozzle (Teejet 11002VS) at 2 bar. The spray solutions also contained the oleyl 20EO alone or in the 1:1 blends with the capped surfactants. The adjuvants were added to the spray solution at a total surfactant rate of 0.2% w/v. All spray solutions also contained 10% w/w of iso-propanol. The weed specie and its BBCH growth stage at spraying was Chenopodium album (CHEAL; growth stage 15). Each spray test was replicated three times. The test plants were then grown in a glasshouse under controlled conditions (24/18° C. day/night; 16 hours light; 65% humidity) and watered twice a day. The efficacy of the herbicide was assessed visually and expressed as a percentage of the leaf area killed. Samples were assessed at a time period of 21 days following application.

[2] = system: Commelina benghalensis (COMBE); test: Glasshouse adjuvancy test for mesotrione on COMBE
Procedure: Mesotrione was added to the spray tank as a standard SC (suspension concentrate) formulation. The plants were sprayed with mesotrione at rates of 30 or 60 grams of pesticide per hectare using a laboratory track sprayer which delivered the aqueous spray composition at a rate of 200 litres per hectare, using a flat fan nozzle (Teejet 11002VS) and an application volume of 200 litre/ha (at 2 bar). The spray solutions also contained the oleyl 20EO alone or in 1:1 blends with the capped surfactants. The adjuvants were added to the spray solution at a total surfactant rate of 0.2% w/v. All spray solutions also contained 10% w/w of iso-propanol. The weed species and their BBCH growth stage at spraying were Brachiaria platyphylla (BRAPL; growth stage 12-13), Commelina benghalensis (COMBE; growth stage 12-14) and Digitaria sanguinalis (DIGSA; growth stage 13). Each spray test was replicated three times. The test plants were then grown in a glasshouse under controlled conditions (24/18° C. day/night; 16 hours light; 65% humidity) and watered twice a day. The efficacy of the herbicide was assessed visually and expressed as a percentage of the leaf area killed. Samples were assessed at a time period of 21 days following application

With `CCCCCCCC/C=C\CCCCCCCCOCCOCCOCCOCCOCCOCCOCCOCCOCCOCCOCCOCCOCCOCCOCCOCCOCCOCCOCCOCCO` [Oleyl 20EO, oleyl 20 ethoxylate] the Mean control (Avena fatua (AVEFA); pinoxaden 7.5 g ai/ha, Example 4) was 65.0%, the Mean control (Avena fatua (AVEFA); pinoxaden 15 g ai/ha, Example 4) was 86.7% and the Mean control (Avena fatua (AVEFA); pinoxaden 15 g ai/ha, Example 9, growth stage 12) was 92.7%. It also gave a Mean control ([1]; fomesafen (sodium salt) 100 g ai/ha) of 68.3%, a Mean control ([1]; fomesafen (sodium salt) 200 g ai/ha) of 68.3% and a Mean control ([2]; mesotrione 30 g ai/ha) of 66.7%. The Mean control ([2]; mesotrione 60 g ai/ha) was 76.7%.
